According to ChEMBL document CHEMBL3352792, “Fragment based search for small molecule inhibitors of HIV-1 Tat-TAR” (Bioorg Med Chem Lett, 2014):
Counter-ions that a name gives are not always drawn. The source made the active and inactive calls. No cut-off for these calls is given here.

What follows are molecules tested against Nucleic Acid (assay: Binding affinity to HIV-1 TAR RNA by Tat-TAR fluorimetric competition assay). Conditions: not given.
Format: nucleic-acid assay, Human immunodeficiency virus 1
In the case of `CN(C)c1nc(N(C)C)c2cc(N)ccc2n1`, the IC50 is reported as 130 µM. `Nc1ccc2c(N)nc(N)nc2c1` gave an IC50 of 110 µM. In the case of `Nc1nc2ccccc2c(=O)[nH]1`, the IC50 is reported as greater than 20000 µM. Work on `N=C(N)Nc1ccccc1` yielded an IC50 greater than 20000 µM. `Nc1nc(N)c2ccccc2n1` gave an IC50 of 400 µM. In the case of `Nc1ccccn1` [2-AMINOPYRIDINE], the IC50 is reported as greater than 20000 µM. With `Nc1nc(N)c2c(N)c(N)ccc2n1` the IC50 was 50 µM. Molecule `Nc1ccc2ccnc(N)c2c1` has an IC50 of 150 µM. For `Nc1nc(N)c2cc(NCc3ccccc3)ccc2n1`, the IC50 was 50 µM. `CN(C)C1=Nc2cccc3cccc(c23)N1` was tested, and the IC50 was 150 µM. In the case of `N=C(N)N` [GUANIDINE HYDROCHLORIDE], the IC50 is reported as greater than 20000 µM. `Nc1ncccn1` was tested, and the IC50 was greater than 20000 µM. With `Nc1nc(N)c2cc(CN3CCNCC3)ccc2n1` the IC50 was 60 µM. `NCc1cnc2nc(N)nc(N)c2n1` showed an IC50 of 50 µM. With `Nc1ncc[nH]1` the IC50 was greater than 2000 µM. With `Nc1ccc2nc(N)nc(N)c2c1` [QUINAZOLINE-2,4,6-TRIAMINE] the IC50 was 40 µM. With `N=C(N)NCc1ccccc1` the IC50 was greater than 20000 µM. Molecule `Nc1cccc2c(N)nccc12` has an IC50 of 700 µM. `NC1=Nc2cccc3cccc(c23)N1` was tested, and the IC50 was 50 µM. Work on `NCc1ccc2nc(N)nc(N)c2c1` yielded an IC50 of 70 µM. `Nc1nccc2ccc(O)cc12` gave an IC50 of 750 µM. In the case of `Nc1nc2ccccc2[nH]1`, the IC50 is reported as greater than 11000 µM. `c1ccc(CNC2=NCCN2)cc1` was tested, and the IC50 was greater than 20000 µM. Work on `NC1=Nc2ccccc2CN1` yielded an IC50 greater than 10000 µM. Molecule `CNC1=Nc2cccc3cccc(c23)N1` has an IC50 of 50 µM. `Cc1ccc2nc(N)nc(N)c2c1` gave an IC50 of 2000 µM. Molecule `CN(C)c1ccc2nc(N)nc(N)c2c1` has an IC50 of 45 µM. Work on `Nc1ccc2ccncc2c1` yielded an IC50 of 2000 µM.

Each molecule was assayed on Nucleic Acid (assay: Binding affinity to HIV-1 TAR RNA at 0.4 mM by 1H NMR titration method). Conditions: Human immunodeficiency virus 1.
Format: nucleic-acid assay
For `Nc1ccc2ccnc(N)c2c1`, the Activity was “Active”.

These molecules were tested on Nucleic Acid (assay: Binding affinity to HIV-1 TAR RNA using 2 equivalents of compound by 1H NMR titration method). Conditions: Human immunodeficiency virus 1.
Format: nucleic-acid assay
`Nc1ccc2nc(N)nc(N)c2c1` [QUINAZOLINE-2,4,6-TRIAMINE] was tested, and the Activity was “Active”.
